Measured values: patent US20260137671A1, “PDK4 as a Cell-Aging Intervention Target and Its Use in Chemotherapy and Anticancer” (Shanghai Institute of Nutrition and Health, Chinese Academy …, priority 2022, published 2026)

Experiments:
[1] = test system: mice aged 24 to 27 months; assay: Lifespan appraisal of late-life mice; type: in vivo, C57BL/6 mice; conditions: PDK4-IN every two weeks, P<0.001 vs Vehicle
Method: FIG. 91. Schematic design for lifespan appraisal of mice. Mice aged 24 to 27 months were administered either Vehicle or PDK4-IN every two weeks, with continuous monitoring of their survival and recording of maximum lifespan.
C57BL/6 mice aged 24 to 27 months were administered either Vehicle or PDK4-IN every two weeks intraperitoneally. The median survival of animals in each group was calculated and indicated. ***, P<0.001.
The earliest deaths occurred approximately 2 months after the last physical function test. C57BL/6 mice aged 19 to 21 months were housed at 3-5 animals per cage. Same as the transplanted mice, the mice were sorted by body weight and randomly assigned to each group, and treated in either control (vehicle) or drug (PDK4) group by persons blinded to the design of the preclinical trial. From the age of 24-27 months, the mice were treated with vehicle or PDK4-IN every 2 weeks, […] for 3 consecutive days at each time. During the course of the study, some mice were removed from their original cages in order to minimize the animal housing stress caused by long-term housing in a single cage. RotaRod and hanging tests were performed monthly because these tests were sensitive and noninvasive. […] During the experiment, no mice were excluded due to fighting, accidental death or dermatitis. For biostatistics, a Cox proportional hazard model was used for survival analysis. […]

[2] = test system: mice with natural senescence; assay: PDK4-IN intervention in naturally aged mice: tissue senescence, physical function, serum markers; type: in vivo, C57BL/6J mice
Method: FIG. 83. Schematic design of 20-month-old C57BL/6J mice undergoing either placebo or PDK4-IN intervention.
All testing began on day 5 after the last placebo or drug treatment. Maximum walking speed was assessed using the accelerated RotaRod System (TSE System, Chesterfiled, MO). The mice were trained on the RotaRod for 3 days at speeds of 4, 6 and 8 r.p.m, lasted for 200 seconds on the 1st, 2nd and 3rd days. On the test day, the mice were placed on the RotaRod, and the test was performed starting at a speed of 4 r.p.m. The rotation speed was accelerated from 4 to 40 r.p.m at intervals of 5 minutes. When the mice fell off the RotaRod, the speed was recorded. The final results were averaged from 3 or 4 trials and normalized to baseline speed. The mice that had been trained within the previous two months were no longer trained.
Forelimb grip strength (N) was measured using a Grip Strength Meter (Columbus Instruments, Columbus, OH), and the results were averaged from more than 10 trials. For the hanging endurance test, the mice were placed on a 2 mm thick metal wire, while the later was 35 cm above a mat. The mice were only allowed to grasp the wire with their forelimbs, and the hang time was normalized to body weight and expressed as hang duration (sec)×body weight (g). The results were the average of 2 to 3 trials per mouse. Their daily activity and food intake were monitored for 24 h (12 hours of light and 12 hours of dark) by a Comprehensive Laboratory Animal Monitoring System (CLAMS). The CLAMS system was equipped with an Oxymax Open Circuit Calorimeter System (Columbus Instruments). For treadmill performance, the mice were acclimatized to run on an electric running machine (Columbus Instruments) at a 5° incline, for 3 days of training, lasted for 5 minutes each day, started at a speed of 5 m/min for 2 minutes, then accelerated to 7 m/min for 2 minutes, then 9 m/min for 1 minute. On the day of the test, the mice ran on the treadmill at an initial speed of 5 m/min for 2 min, and then the speed increased by 2 m/min every 2 min until the mice were exhausted. Fatigue was defined as the inability of mice to return to the treadmill despite mild electrical and mechanical stimulation. The distance was recorded after the test, and the total work (KJ) was calculated with the following formula: mass (kg)×g (9.8 m/s2)×distance (m)×sin (5°).
With the increasing global senescent trend in recent years, drugs that can effectively alleviate the senescent process have become a common interest among scientists and pharmaceutical companies worldwide. The inventors queried whether manipulation of PDK4 activities can control various senescence-associated phenotypes. Therefore, the inventors chose to treat normal 20-month-old wild-type mice with PDK4-IN (PDK4-IN 10 mg/kg via intraperitoneal injection once every 2 weeks) for 4 months, after which physical function or physical ability was experimentally determined in mice with natural senescence (FIG. 83).

[3] = test system: cancer cells in tumors (PC3/PSC27 xenografts); assay: DNA damage and apoptosis in tumors by IHC (γ-H2AX, cleaved caspase 3); type: in vivo, SCID mice; conditions: for DNA damage and apoptosis in cancer cells: tumors dissected 7 days after initiation of treatment
Description: FIG. 69. Statistical evaluating values of DNA-damaged cells and apoptotic cells in analyzed tumor specimens, represented as a percentage of cells positively stained by IHC with antibodies against γ-H2AX or caspase 3 (cleaved).
FIG. 70. Representative IHC images of caspase 3 (cleaved) in tumors at the end of therapeutic regimens. Biopsies of placebo-treated animals served as negative controls for drug-treated mice. Scale bar, 100 μm.
Considering the primary in vivo expressive results with MIT and/or PDK4-IN treatment, the inventors next asked how pharmacologically targeting PDK4 could enhance the therapeutic response of tumors. To disclose the possible mechanism(s), the inventors chose to dissect tumors from animals 7 days after initiation of treatment, a timepoint right before the development of resistant colonies.

[4] = 20-month-old mice, PDK4-IN 10 mg/kg i.p. once every 2 weeks for 4 months

For `O=C1c2ccccc2C(=O)c2c1cccc2-c1cnn(C2CCNCC2)c1` [PDK4-IN], the “lifespan during the intervention period” value [1] was “significantly extended the lifespan”, the “SA-β-gal positivity in liver, lung, prostate and myocardial tissues of aged animals” value [2, 4] was “partially reversed” and the “age-dependent expansion of alveoli” value [2, 4] was “effectively controlled”. For the same compound, the grip strength [2, 4] was “significantly improved”, the motor skills [2, 4] was “significantly improved” and the serum lactate levels ([2]; aged animals receiving PDK4-IN treatment) was “significant reduction”. For the same compound, the “age-related elevation of serum alanine aminotransferase (ALT)” value ([2]; aged mice treated with PDK4-IN) was “significantly avoided these changes”, the “age-related elevation of serum aspartate aminotransferase (AST)” value ([2]; aged mice treated with PDK4-IN) was “significantly avoided these changes” and the “age-related elevation of serum lactate dehydrogenase (LDH)” value ([2]; aged mice treated with PDK4-IN) was “significantly avoided these changes”. The body weight ([2]; aged mice treated with PDK4-IN) was “essentially unaffected”, the food intake ([2]; aged mice treated with PDK4-IN) was “essentially unaffected” and the “caspase 3 cleavage (IHC)” value ([3]; PDK4-IN added to MIT) was “further enhanced”. The “DNA damage and apoptosis in cancer cells” value ([3]; PDK4-IN upon combination with MIT) was “prominent efficacy in enhancing these therapeutic indices” and the “DNA damage and apoptosis in cancer cells” value ([3]; single agent) was “neither caused typical DDR nor induced cell apoptosis”.
